# Results published in patent US7205333B2 (priority 2000, dated 2007).
# Like-named read-outs stand apart in the source and are kept apart here.
# Experiments:
# [1] = tested on: Influenza B/Victoria/1/87; assay: Influenza plaque assay in MDCK cell monolayers; details: Influenza B virus, 96 h, read-out: EC50 on Influenza B/Victoria/1/87
# [2] = tested on: Influenza A/Victoria/3/75; assay: Influenza plaque assay in MDCK cell monolayers; details: Influenza A virus, 96 h, read-out: EC50 on Influenza A/Victoria/3/75
# [3] = tested on: Influenza A/Victoria/3/75; set-up: species or system mice; details: mouse, in vivo
# [4] = tested on: Influenza A/Singapore/1/57; assay type: in vivo; set-up: Effectiveness: unit: %; details: A/Singapore/1/57, lungs 1 day post infection; for Effectiveness / Mean Virus Titre (logTCID50/ml): mice
# [5] = Long duration of action: level of compound in lung tissue after intra-tracheal dosing; assay type: in vivo, Rodents; details: 0.4 mg/kg intra-tracheal, LC-MS/MS, in parallel with Zanamivir
# Method: Rodents are anaesthetised and dosed with compound of interest by the intra-tracheal route at a dose volume of 0.8 ml/kg. The rodent is then held in the vertical position until full recovery is achieved. At different time points, for example, 2, 8, 24 and 48 hours post-dose, levels of compound in the lung tissue are assessed by analytical methods. Any analytical method suitable for detection of this type of compound may-be used. The time at which levels of compound fall below the sensitivity of the analytical techniques identified will determine the residency time of the compound in lung tissue.
# The multimeric Compounds No 3, 4 and 20 of the invention were tested in parallel with Zanamivir [Compound (A)] using a dose of 0.4 mg/kg for each compound and assessing the level of compound in the lung tissue after 48 and 168 hours, using LC-MS/MS.
# A/Sydney/5/97 = assay: Inhibition of cytopathic effect (CPE) of influenza virus replication in MDCK cells; details: for EC50 / IC50: Influenza A virus, MDCK; for EC50: read-out: EC50 on Influenza A/Sydney/5/97
# B/Harbin/7/95 = assay: as above; details: for EC50 / IC50: Influenza B virus, MDCK; for EC50: read-out: EC50 on Influenza B/Harbin/7/95
# A/Victoria/3/75 = assay: as above
# [6] = tested on: Influenza A/Victoria/3/75; set-up: species or system mice; details: mouse, in vivo; remark: listed apart in the source
# Influenza A/WSN/33 = assay: Influenza plaque assay in MDCK cell monolayers; details: Influenza A virus, 96 h, read-out: EC50 on Influenza A/WSN/33
# [7] = CPE results, same protocol as b341, MDCK cells
SMILES,EC50 [1] [ng/mL],EC50 [2] [ng/mL],% Effectiveness [3] [%],Mean Virus Titre (logTCID50/ml) [3] [logTCID50/ml],Number of virus free mice [3],Number of virus free mice ([4]; 1 mg/kg),Effectiveness ([4]; 1 mg/kg),Mean Virus Titre (logTCID50/ml) ([4]; 1 mg/kg),EC50 (A/Sydney/5/97) [ng/mL],EC50 (B/Harbin/7/95) [ng/mL],IC50 (A/Sydney/5/97; read-out: IC50 nM) [nM],IC50 (A/Sydney/5/97; read-out: IC50 ng/ml) [ng/mL],IC50 (B/Harbin/7/95; read-out: IC50 nM) [nM],IC50 (B/Harbin/7/95; read-out: IC50 ng/ml) [ng/mL],IC50 (A/Victoria/3/75; read-out: IC50 nM) [nM],IC50 (A/Victoria/3/75; read-out: IC50 ng/ml) [ng/mL],also measured
CC(=O)N[C@H]1[C@H]([C@H](OC(=O)NCCCCCCNC(=O)CN(CCN(CC(=O)NCCCCCCNC(=O)O[C@H](C(O)CO)[C@@H]2OC(C(=O)O)=C[C@H](NC(=N)N)[C@H]2NC(C)=O)CC(=O)NCCCCCCNC(=O)O[C@H](C(O)CO)[C@@H]2OC(C(=O)O)=C[C@H](NC(=N)N)[C@H]2NC(C)=O)CC(=O)NCCCCCCNC(=O)O[C@H](C(O)CO)[C@@H]2OC(C(=O)O)=C[C@H](NC(=N)N)[C@H]2NC(C)=O)C(O)CO)OC(C(=O)O)=C[C@@H]1NC(=N)N (some centres unmarked) [Compound 3],0.3,0.1,59,4.0,4,1,99.47,3.78,–,–,–,–,–,–,–,–,Number of virus free mice ([4]; 0.01 mg/kg): 0; Effectiveness ([4]; 0.01 mg/kg): 68.38; Mean Virus Titre (logTCID50/ml) ([4]; 0.01 mg/kg): 5.55 logTCID50/ml; Number of virus free mice ([4]; 0.1 mg/kg): 0; Effectiveness ([4]; 0.1 mg/kg): 95.53; Mean Virus Titre (logTCID50/ml) ([4]; 0.1 mg/kg): 4.70 logTCID50/ml; level of compound in the lung tissue after 48 and 168 hours [5]: retained in the lung at much higher concentrations than the monomer Zanamivir (A)
"CC(=O)N[C@H]1[C@H]([C@H](OC(=O)NCCCCCCNC(=O)CN(CCN(CC(=O)NCCCCCCNC(=O)O[C@@H]([C@@H]2OC(C(=O)O)=C[C@H](NC(=N)N)[C@H]2NC(C)=O)[C@H](O)CO)CC(=O)NCCCCCCNC(=O)O[C@@H]([C@@H]2OC(C(=O)O)=C[C@H](NC(=N)N)[C@H]2NC(C)=O)[C@H](O)CO)CC(=O)O)[C@H](O)CO)OC(C(=O)O)=C[C@@H]1NC(=N)N.O=C(O)C(F)(F)F [Compound 14, (19R,20R)-19-((2R,3R,4S)-3-(acetylamino)-4-{[amino (imino)methyl]amino}-6-carboxy-3,4-dihydro-2H-pyran-2-yl)-3,6-bis[2-({6-[({[(1R,2R)-1-((2R,3R,4S)-3-(acetylamino)-4-{[amino(imino)methyl]amino}-6-carboxy-3,4-dihydro-2H-pyran-2-yl)-2,3-dihydroxypropyl]oxy}carbonyl)amino]hexyl}amino)-2-oxoethyl]-20,21-dihydroxy-8,17-dioxo-18-oxa-3,6,9,16-tetraazahenicosan-1-oic acid tris(trifluoroacetate)]",6.3,–,–,–,–,–,–,–,–,–,–,–,–,–,–,–,–
CC(=O)N[C@H]1[C@H]([C@H](OC(=O)NCCCCCCNC(=O)COc2c3cc(C(C)(C)C)cc2Cc2cc(C(C)(C)C)cc(c2OCC(=O)NCCCCCCNC(=O)O[C@@H]([C@@H]2OC(C(=O)O)=C[C@H](NC(=N)N)[C@H]2NC(C)=O)[C@H](O)CO)Cc2cc(C(C)(C)C)cc(c2OCC(=O)NCCCCCCNC(=O)O[C@@H]([C@@H]2OC(C(=O)O)=C[C@H](NC(=N)N)[C@H]2NC(C)=O)[C@H](O)CO)Cc2cc(C(C)(C)C)cc(c2OCC(=O)NCCCCCCNC(=O)O[C@@H]([C@@H]2OC(C(=O)O)=C[C@H](NC(=N)N)[C@H]2NC(C)=O)[C@H](O)CO)C3)[C@H](O)CO)OC(C(=O)O)=C[C@@H]1NC(=N)N [Compound 23],–,–,78.2,4.7,0,–,–,–,–,–,–,–,–,–,–,–,EC50 on Influenza A/Sydney/5/97 (A/Sydney/5/97; [7]): 27.714; EC50 on Influenza B/Harbin/7/95 (B/Harbin/7/95; [7]): 9.263
O=Cc1cc(C=O)cc(C=O)c1 [Compound 29],–,–,–,–,–,–,–,–,0.089,0.882,–,–,–,–,–,–,–
"CC(=O)N[C@H]1[C@H]([C@H](OC(=O)NCCCCCCN)[C@H](O)CO)OC(C(=O)O)=C[C@@H]1NC(=N)N [Compound (2) TFA2, 5-acetamido-7-(6-aminohexylcarbamoyloxy)-4-guanidino-2,3,4,5-tetradeoxy-D-glycero-D-galacto-non-2-enopyranosonic acid]",–,–,–,–,–,–,–,–,–,–,588,413,259,182,52.7,37,–
"CC(=O)N[C@H]1[C@H]([C@H](O)[C@H](O)CO)OC(C(=O)O)=C[C@@H]1NC(=N)N [Zanamivir, 4-guanidino-2-deoxy-2,3-dehydro-N-acetylneuraminic acid, reference compound]",16,3.5,−43.4,–,0,0,74.88,5.18,32.7,14.2,77.7,25.8,31.2,10.4,73.9,24.6,Effectiveness [6]: 81.76; Number of virus free mice [6]: 0; Number of virus free mice ([4]; 0.2 mg/kg): 0; Effectiveness ([4]; 0.2 mg/kg): 33.17; Mean Virus Titre (logTCID50/ml) ([4]; 0.2 mg/kg): 5.60 logTCID50/ml; Number of virus free mice ([4]; 5 mg/kg): 1; Effectiveness ([4]; 5 mg/kg): 93.69; Mean Virus Titre (logTCID50/ml) ([4]; 5 mg/kg): 4.58 logTCID50/ml; EC50 (Influenza A/WSN/33): 22.7 ng/mL
